Test results reported in patent US20140037719A1, “STABILIZED PHARMACEUTICAL FORMULATIONS OF A POTENT HCV INHIBITOR” (Robert Majeska, priority 2012, published 2014).

Test: Ames test / genotoxicity of degradation product
Assay type: cell-based

For `C=C[C@@H]1C[C@]1(N)C(=O)O` [Compound X], the Ames result was “Ames positive” and the genotoxicity was “genotoxic”.
